# Test system: LRF (luteinizing hormone release factor) induced luteinizing hormone (LH) release
# Assay: In vitro LRF antagonist test in rat anterior pituitary cell cultures
# Type: cell-based
# Settings: LRF alone, Molar Conc. 2.5×10^-10 (stimulation control)
# Text: Hexapeptides of this invention were screened for LRF antagonist activity in vitro using rat anterior pituitary cell cultures as described by Vale et. al. [Endocrinology, 91, 562 (1972)]. The inhibition of LRF (luteinizing hormone release factor) induced luteinizing hormone (LH) release into the culture medium is the endpoint in this in vitro bioassay.
substance,measurement,value
"LRF Control: luteinizing hormone releasing factor, also referred to as luteinizing hormone releasing hormone, LH-RH; stimulates secretion of luteinizing hormone (QHWSYGLRPG; Gonadoliberin-1; UniProt P01148 24-33, looked up)",LH Value,38.98 ng/mL

# Source: US4087418A, “Hexapeptides and methods for their production” (Parke, Davis & Company, priority 1976, dated 1978)
